The structures appear in SMILES notation.

For one test, the system named is Alternaria solani. In words: Activity against tomato early blight (AS). It counts as in vivo. To be noted: Table VI; tomato seedlings, contact prophylactic foliar spray, 4 days. Summed up: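 Plants were challenged with A. solani conidia (10^4 spores/ml) 24 h after a protective foliar spray of compound in 50:50 acetone/water plus 0.04% Tween 20. Held humid at 21° C for 4 days, then percent leaf area with lesions was scored as a rating relative to controls.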

The next test concerns Botrytis cinerea. In words: Direct protectant activity against broad bean grey mould (BCB). It counts as in vivo. To be noted: direct protectant foliar spray, 600 ppm, 4 days. Summed up: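 Protectant foliar test: lesion coverage assessed 4 days after inoculation and rated relative to untreated or diluent-sprayed plants. Compound applied at 600 ppm to cv The Sutton leaves 24 h before 10^6 conidia/ml suspension; incubation at 22 °C in high humidity.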

A further test relates to Phytophthora infestans. It counts as in vivo. The conditions noted are these: tomato, direct protectant foliar spray.
Test [1] concerns Pseudocercosporella herpotrichoides. The test can be described thus: Activity against wheat eyespot in-vitro (PHI). To be noted: 10 ppm, 10 days, 20° C., mycelial growth. Format: cell-based. The gist of the method:
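Mycelial growth was scored after 10 days at 20 °C against untreated or diluent controls. The broth was half-strength potato dextrose, holding 10 ppm test compound (from acetone) and 5×10^4 fragments/ml of the eyespot fungus.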

For the next test, the system named is Rhizoctonia solani. In words: Activity against Rhizoctonia in-vitro (RSI). It counts as cell-based. The conditions noted are these: 10 ppm, 10 days, 20° C., mycelial growth. The gist of the method: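 Compound at a final 10 ppm (acetone vehicle) in half-strength PDB, inoculated with 5×10^4 fragments/ml of shaken-culture R. solani mycelium. After incubation at 20° C for 10 days, growth scored as a rating versus untreated or diluent-treated controls.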

The next test relates to Leptosphaeria nodorum. In words: Activity against wheat leafspot (LN). Format: in vivo. To be noted: direct therapeutic foliar spray, 600 ppm, 6-8 days. Summed up: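 Therapeutic foliar spray: compound at 600 ppm applied to single-leaf wheat (cv Norman) 24 h after inoculation with 1.5×10^6 conidia/ml. Disease control scored after 6-8 days at 22° C and 70% humidity as lesions per leaf versus untreated or diluent-sprayed controls.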

The test system of another test is Plasmopara viticola. The test can be described thus: Antisporulant activity against vine downy mildew (PVA). Format: in vivo. The conditions noted are these: vine leaves, antisporulant foliar spray, 600 ppm, 750 l/ha. The gist of the method: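 Cabernet Sauvignon vines (~8 cm) inoculated on lower leaf surfaces with 5×10^4 zoosporangia/ml, held 24 h at 21° C high humidity then 24 h glasshouse. Infected leaves sprayed underside with 600 ppm compound in 1:1 water/acetone, 0.04% Tween 20, 750 l/ha; 96 h glasshouse, 24 h humidity. Sporulating leaf area rated versus control.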

Test [2] concerns Erysiphe graminis f.sp. hordei. In words: Direct protectant activity against barley powdery mildew (EGP). It counts as in vivo. To be noted: direct protectant foliar spray, 8 days. The gist of the method:
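Rating reflects percentage of leaf area with sporulation compared with untreated or diluent-sprayed controls. Protectant spray was applied to single-leaf barley (cv Golden Promise) 24 h before conidia inoculation. Plants were kept at 18 °C and 40% RH throughout, with 8 days of disease development.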

The next test concerns Pyricularia oryzae. Format: in vivo. The conditions noted are these: rice seedlings, direct therapeutic foliar spray, 600 ppm, 4-5 days.
Another test deals with Venturia inaequalis. In words: Activity against apple scab in-vitro (VII). It counts as cell-based. The conditions noted are these: 10 ppm, 10 days, 20° C., mycelial growth. Summed up:
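V. inaequalis propagules (5×10^4/ml, malt agar-grown) were exposed in half-strength PDB to 10 ppm final test compound delivered in acetone. Growth was scored after incubation for 10 days at 20° C, as a rating relative to untreated or diluent-sprayed controls.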

In test [3] the test system is Erysiphe graminis f.sp. hordei. In words: Activity against barley powdery mildew, direct therapeutic (EGT). It counts as in vivo. The conditions noted are these: direct therapeutic foliar spray, 600 ppm, up to 7 days. The gist of the method:
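A curative spray at 600 ppm was applied to single-leaf Golden Promise barley inoculated with powdery mildew conidia the previous day. After up to 7 days at 18 °C and 40% humidity, disease control was rated from percent leaf area sporulating relative to untreated or diluent-sprayed controls.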

With `CC(=CC(=O)CC(C)C)NC1COC2(CCC(C(C)(C)C)CC2)C1` (stereo not shown) [Compound 124], the “disease control rating AS” value with Alternaria solani is 0 (less than 50% disease control). Moreover, the “disease control rating BCB” value with Botrytis cinerea is reported as 0 (less than 50% disease control). Moreover, the “disease control rating PIP” value with Phytophthora infestans is given as 2 (greater than 80% disease control). The “disease control rating PHI” value in test [1] is listed as 0 (less than 50% disease control). Besides, in the test with Rhizoctonia solani, the “disease control rating RSI” value is 0 (less than 50% disease control). For the same compound, the “disease control rating LN” value in the test on Leptosphaeria nodorum was 0 (less than 50% disease control). Moreover, in the test with Plasmopara viticola, the “disease control rating PVA” value is on record as 0 (less than 50% disease control). Further, the “disease control rating EGP” value in [2] was 2 (greater than 80% disease control). Also, the “disease control rating PO” value in the test on Pyricularia oryzae is 0 (less than 50% disease control). The “disease control rating VII” value in the test with Venturia inaequalis is given as 0 (less than 50% disease control). Further, in test [3], the “disease control rating EGT” value is 2 (greater than 80% disease control).

In the case of `CN(CC1(C)CCCCC1)C1COC2(CCC(C(C)(C)C)CC2)C1` (stereo not shown) [Compound 125], in the test on Alternaria solani, the “disease control rating AS” value was 0 (less than 50% disease control). Besides, the “disease control rating BCB” value with Botrytis cinerea is on record as 0 (less than 50% disease control). Also, the “disease control rating PIP” value in the test on Phytophthora infestans is 0 (less than 50% disease control). For the same compound, the “disease control rating PHI” value in test [1] is on record as 1 (about 50-80% disease control). Further, the “disease control rating RSI” value with Rhizoctonia solani is on record as 0 (less than 50% disease control). Moreover, the “disease control rating LN” value in the test with Leptosphaeria nodorum is recorded as 0 (less than 50% disease control). In the test on Plasmopara viticola, the “disease control rating PVA” value is given as 0 (less than 50% disease control). The “disease control rating EGP” value in test [2] is 2 (greater than 80% disease control). Moreover, the “disease control rating PO” value in the test with Pyricularia oryzae is on record as 0 (less than 50% disease control). In addition, the “disease control rating VII” value in the test with Venturia inaequalis is recorded as 1 (about 50-80% disease control). The “disease control rating EGT” value in test [3] is 2 (greater than 80% disease control).

For `CCN(CC1(C)CCCCC1)C1COC2(CCC(C(C)(C)C)CC2)C1` (stereo not shown) [Compound 126], the “disease control rating AS” value with Alternaria solani is recorded as 0 (less than 50% disease control). The “disease control rating BCB” value in the test on Botrytis cinerea is on record as 0 (less than 50% disease control). For the same compound, in the test on Phytophthora infestans, the “disease control rating PIP” value is on record as 0 (less than 50% disease control). In [1], the “disease control rating PHI” value is 0 (less than 50% disease control). In the test with Rhizoctonia solani, the “disease control rating RSI” value is recorded as 0 (less than 50% disease control). Also, the “disease control rating LN” value with Leptosphaeria nodorum was 0 (less than 50% disease control). Also, the “disease control rating PVA” value with Plasmopara viticola is given as 0 (less than 50% disease control). Moreover, the “disease control rating EGP” value in test [2] is given as 2 (greater than 80% disease control). In addition, in the test on Pyricularia oryzae, the “disease control rating PO” value is recorded as 0 (less than 50% disease control). Further, in the test with Venturia inaequalis, the “disease control rating VII” value is recorded as 1 (about 50-80% disease control). Also, the “disease control rating EGT” value in test [3] is recorded as 2 (greater than 80% disease control).

Regarding `CCCN(CC1(C)CCCCC1)C1COC2(CCC(C(C)(C)C)CC2)C1` (stereo not shown) [Compound 127], the “disease control rating AS” value in the test with Alternaria solani is 0 (less than 50% disease control). For the same compound, in the test with Botrytis cinerea, the “disease control rating BCB” value is recorded as 0 (less than 50% disease control). Besides, the “disease control rating PIP” value with Phytophthora infestans is listed as 0 (less than 50% disease control). Besides, in test [1], the “disease control rating PHI” value is on record as 0 (less than 50% disease control). The “disease control rating RSI” value with Rhizoctonia solani is on record as 0 (less than 50% disease control). The “disease control rating LN” value in the test with Leptosphaeria nodorum is on record as 0 (less than 50% disease control). Besides, the “disease control rating PVA” value in the test on Plasmopara viticola was 0 (less than 50% disease control). Also, in test [2], the “disease control rating EGP” value is on record as 2 (greater than 80% disease control). Further, the “disease control rating PO” value in the test on Pyricularia oryzae is reported as 0 (less than 50% disease control). Also, in the test with Venturia inaequalis, the “disease control rating VII” value is listed as 1 (about 50-80% disease control). In [3], the “disease control rating EGT” value is on record as 2 (greater than 80% disease control).

With `CN(C1COC2(CCC(C(C)(C)C)CC2)C1)C1CC2CCC1C2` (stereo not shown) [Compound 128], the “disease control rating AS” value with Alternaria solani is listed as 2 (greater than 80% disease control). Moreover, the “disease control rating BCB” value in the test on Botrytis cinerea is 0 (less than 50% disease control). The “disease control rating PIP” value in the test on Phytophthora infestans is recorded as 0 (less than 50% disease control). For the same compound, the “disease control rating PHI” value in test [1] was 0 (less than 50% disease control). Moreover, in the test on Rhizoctonia solani, the “disease control rating RSI” value is given as 0 (less than 50% disease control). Also, the “disease control rating LN” value in the test with Leptosphaeria nodorum is reported as 0 (less than 50% disease control). In the test with Plasmopara viticola, the “disease control rating PVA” value is 0 (less than 50% disease control). Besides, in [2], the “disease control rating EGP” value is on record as 2 (greater than 80% disease control). The “disease control rating PO” value in the test with Pyricularia oryzae is on record as 0 (less than 50% disease control). The “disease control rating VII” value in the test with Venturia inaequalis is 1 (about 50-80% disease control). For the same compound, in [3], the “disease control rating EGT” value is 2 (greater than 80% disease control).

For `CCN(C1COC2(CCC(C(C)(C)C)CC2)C1)C1CC2CCC1C2` (stereo not shown) [Compound 129], the “disease control rating AS” value in the test with Alternaria solani is recorded as 0 (less than 50% disease control). The “disease control rating BCB” value with Botrytis cinerea is 0 (less than 50% disease control). In addition, the “disease control rating PIP” value in the test with Phytophthora infestans is recorded as 0 (less than 50% disease control). Also, the “disease control rating PHI” value in test [1] is 0 (less than 50% disease control). The “disease control rating RSI” value in the test on Rhizoctonia solani was 0 (less than 50% disease control). For the same compound, the “disease control rating LN” value in the test with Leptosphaeria nodorum was 0 (less than 50% disease control). In addition, the “disease control rating PVA” value in the test on Plasmopara viticola is on record as 0 (less than 50% disease control). The “disease control rating EGP” value in test [2] is 2 (greater than 80% disease control). Also, the “disease control rating PO” value in the test with Pyricularia oryzae was 0 (less than 50% disease control). Besides, in the test on Venturia inaequalis, the “disease control rating VII” value is 1 (about 50-80% disease control). The “disease control rating EGT” value in test [3] was 2 (greater than 80% disease control).

In the case of `CCCN(C1COC2(CCC(C(C)(C)C)CC2)C1)C1CC2CCC1C2` (stereo not shown) [Compound 130], in the test on Alternaria solani, the “disease control rating AS” value is 0 (less than 50% disease control). In addition, the “disease control rating BCB” value in the test with Botrytis cinerea was 0 (less than 50% disease control). For the same compound, the “disease control rating PIP” value in the test with Phytophthora infestans was 2 (greater than 80% disease control). Also, in [1], the “disease control rating PHI” value is listed as 0 (less than 50% disease control). For the same compound, the “disease control rating RSI” value with Rhizoctonia solani is listed as 0 (less than 50% disease control). Further, the “disease control rating LN” value in the test on Leptosphaeria nodorum was 0 (less than 50% disease control). Moreover, in the test on Plasmopara viticola, the “disease control rating PVA” value is 0 (less than 50% disease control). Also, the “disease control rating EGP” value in test [2] is listed as 2 (greater than 80% disease control). Besides, the “disease control rating PO” value with Pyricularia oryzae was 0 (less than 50% disease control). The “disease control rating VII” value in the test with Venturia inaequalis is 1 (about 50-80% disease control). Moreover, the “disease control rating EGT” value in [3] is reported as 2 (greater than 80% disease control).

With `CN(CC(C)(C)C)C1COC2(CCC(C(C)(C)C)CC2)C1` (stereo not shown) [Compound 131], the “disease control rating AS” value in the test with Alternaria solani is on record as 0 (less than 50% disease control). In addition, in the test with Botrytis cinerea, the “disease control rating BCB” value is reported as 0 (less than 50% disease control). In addition, in the test with Phytophthora infestans, the “disease control rating PIP” value is on record as 0 (less than 50% disease control). The “disease control rating PHI” value in [1] is on record as 0 (less than 50% disease control). Also, in the test on Rhizoctonia solani, the “disease control rating RSI” value is on record as 0 (less than 50% disease control). The “disease control rating LN” value with Leptosphaeria nodorum was 0 (less than 50% disease control). Besides, the “disease control rating PVA” value in the test on Plasmopara viticola is recorded as 0 (less than 50% disease control). Moreover, in test [2], the “disease control rating EGP” value is listed as 2 (greater than 80% disease control). Also, the “disease control rating PO” value with Pyricularia oryzae is 0 (less than 50% disease control). Besides, the “disease control rating VII” value with Venturia inaequalis is on record as 1 (about 50-80% disease control). In addition, the “disease control rating EGT” value in [3] is on record as 2 (greater than 80% disease control).
